One may read the IC50 as the concentration that gives 50% inhibition.

Structures can show the parent of a compound that is named as a salt. Bounds are passed on as bounds.

Experimental findings from BindingDB's records for doi:10.1016/j.bmc.2004.12.045 (Cnrs, 2005) are described below.

This assay addresses Glycogen synthase kinase-3 beta (Sus scrofa). Description: Kinase activities were assayed in buffers containing substrate, enzyme, and inhibitor at 30 °C in the presence of 15 uM ATP/ [gamma-32P] ATP. 32P incorporation was measured with a scintillation counter. The IC50 is the inhibitor concentration, which inhibits 50% of kinase activity that catalyzes the transfer of the terminal phosphate from 32P l. The settings on record: pH 7.5.
On to `Cc1cc2c(c3c1[nH]c1ccccc13)CNC2=O` [8-methyl-4,10-diazatetracyclo[7.7.0.0^{2,6}.0^{11,16}]hexadeca-1(9),2(6),7,11(16),12,14-hexaen-5-one], for which the IC50 is over 10 µM. Take `Cc1cc2c(c3c4ccccc4n(COCC[Si](C)(C)C)c13)CNC2=O` [5-Methyl-6-(2-trimethylsilanyl-ethoxymethyl)-1,2-dihydro-6H-pyrrolo[3,4-c]carbazol-3-one]: the IC50 was over 10 µM. Consider `Cc1cc2c(c3c4ccccc4n(COCC[Si](C)(C)C)c13)C(=N)N(CCN(C)C)C2=O` [4-[2-(dimethylamino)ethyl]-3-imino-8-methyl-10-{[2-(trimethylsilyl)ethoxy]methyl}-4,10-diazatetracyclo[7.7.0.0^{2,6}.0^{11,16}]hexadeca-1(9),2(6),7,11(16),12,14-hexaen-5-one], for which the IC50 is over 10 µM. With `Cc1c2c(c(CNC(=O)CN(C)C)c3c1[nH]c1ccccc13)C(=O)N(Cc1ccccc1)C2=O` [{[({2-benzyl-4-methyl-1,3-dioxo-1H,2H,3H,5H-pyrrolo[3,4-b]carbazol-10-yl}methyl)carbamoyl]methyl}dimethylazanium chloride], the IC50 is over 10 µM. Regarding `NCc1nc2c(c3c1[nH]c1ccccc13)CNC2=O` [8-(aminomethyl)-4,7,10-triazatetracyclo[7.7.0.0^{2,6}.0^{11,16}]hexadeca-1(9),2(6),7,11(16),12,14-hexaen-5-one hydrochloride], the IC50 was 5.5 µM. To `O=C1c2nc(-c3ccccc3)c3[nH]c4ccccc4c3c2CN1Cc1ccccc1` [2-Benzyl-5-phenyl-1,2-dihydro-6H-2,4,6-triazacyclopenta[c]fluoren-3-one] belongs over 10 µM; to `Cc1nc2c(c3c1[nH]c1ccccc13)CNC2=O` [5-Methyl-1,2-dihydro-6H-2,4,6-triaza-cyclopenta[c]fluoren-3-one], over 10 µM.

As for `Cc1c2c(c(CN)c3c4ccccc4n(COCC[Si](C)(C)C)c13)C(=O)N(C)C2=O` [10-(aminomethyl)-2,4-dimethyl-5-{[2-(trimethylsilyl)ethoxy]methyl}-1H,2H,3H,5H-pyrrolo[3,4-b]carbazole-1,3-dione], the IC50 is over 10 µM. Turning to `Cc1c2c(c(CNC(=O)CN(C)C)c3c4ccccc4n(COCC[Si](C)(C)C)c13)C(=O)N(C)C2=O` [N-[(2,4-dimethyl-1,3-dioxo-5-{[2-(trimethylsilyl)ethoxy]methyl}-1H,2H,3H,5H-pyrrolo[3,4-b]carbazol-10-yl)methyl]-2-(dimethylamino)acetamide], the half-inhibitory concentration (IC50) was over 10 µM.

Regarding `Cc1c2c(c(C#N)c3c4cc(Cl)ccc4n(COCC[Si](C)(C)C)c13)C(=O)N(C)C2=O` [8-chloro-2,4-dimethyl-1,3-dioxo-5-{[2-(trimethylsilyl)ethoxy]methyl}-1H,2H,3H,5H-pyrrolo[3,4-b]carbazole-10-carbonitrile], the IC50 was over 10 µM. As for `Cc1c2c(c(CNC(=O)CN(C)C)c3c1[nH]c1ccccc13)C(=O)N(C)C2=O` [{[({2,4-dimethyl-1,3-dioxo-1H,2H,3H,5H-pyrrolo[3,4-b]carbazol-10-yl}methyl)carbamoyl]methyl}dimethylazanium chloride], the IC50 was over 10 µM. For `Cc1nc2c(c3c4ccccc4n(CCN(C)C)c13)CNC2=O` [10-[2-(dimethylamino)ethyl]-8-methyl-4,7,10-triazatetracyclo[7.7.0.0^{2,6}.0^{11,16}]hexadeca-1(9),2(6),7,11(16),12,14-hexaen-5-one], the IC50 worked out at 7 µM. Consider `Cc1cc(C)c(S(=O)(=O)NCc2nc3c(c4c2[nH]c2ccccc24)CNC3=O)c(C)c1` [2,4,6-Trimethyl-N-(3-oxo-1,2,3,6-tetrahydro-2,4,6-triaza-cyclopenta[c]fluoren-5-ylmethyl)-benzene-sulfonamide], for which the IC50 was found to be 1.5 µM. Take `Cc1cc2c(c3c4ccccc4n(COCC[Si](C)(C)C)c13)C(=O)N(CCN(C)C)C2=O` [2-[2-(dimethylamino)ethyl]-5-methyl-6-{[2-(trimethylsilyl)ethoxy]methyl}pyrrolo[3,4-c]carbazole-1,3(2H,6H)-dione]: the IC50 is over 10 µM. To `CN(C)CC(=O)NCc1nc2c(c3c1[nH]c1ccccc13)CNC2=O` [2-(dimethylamino)-N-({5-oxo-4,7,10-triazatetracyclo[7.7.0.0^{2,6}.0^{11,16}]hexadeca-1(9),2(6),7,11(16),12,14-hexaen-8-yl}methyl)acetamide] belongs 8 µM; to `Cc1c2c(c(CN)c3c4ccccc4n(COCC[Si](C)(C)C)c13)C(=O)N(Cc1ccccc1)C2=O` [10-(aminomethyl)-2-benzyl-4-methyl-5-{[2-(trimethylsilyl)ethoxy]methyl}-1H,2H,3H,5H-pyrrolo[3,4-b]carbazole-1,3-dione], over 10 µM.

As to `Cc1c2c(c(C#N)c3c4ccccc4n(COCC[Si](C)(C)C)c13)C(=O)N(C)C2=O` [2,4-dimethyl-1,3-dioxo-5-{[2-(trimethylsilyl)ethoxy]methyl}-1H,2H,3H,5H-pyrrolo[3,4-b]carbazole-10-carbonitrile], the IC50 is over 10 µM. For the compound `Cc1c2c(c(CNC(=O)CCN(C)C)c3c4ccccc4n(COCC[Si](C)(C)C)c13)C(=O)N(Cc1ccccc1)C2=O` [N-[(2-benzyl-4-methyl-1,3-dioxo-5-{[2-(trimethylsilyl)ethoxy]methyl}-1H,2H,3H,5H-pyrrolo[3,4-b]carbazol-10-yl)methyl]-3-(dimethylamino)propanamide], the IC50 was over 10 µM. Turning to `Cc1nc2c(c3c1[nH]c1ccccc13)CN(CCN(C)C)C2=O` [2-(2-Dimethylaminoethyl)-5-methyl-1,2-di-hydro-6H-2,4,6-triaza-cyclopenta[c]fluoren-3-one], the IC50 was over 10 µM. For `Cc1c2c(c(CNC(=O)CCN(C)C)c3c4ccccc4n(COCC[Si](C)(C)C)c13)C(=O)N(C)C2=O` [N-[(2,4-dimethyl-1,3-dioxo-5-{[2-(trimethylsilyl)ethoxy]methyl}-1H,2H,3H,5H-pyrrolo[3,4-b]carbazol-10-yl)methyl]-3-(dimethylamino)propanamide] the value was over 10 µM; for `Cc1c2c(c(CNC(=O)CN(C)C)c3c4ccccc4n(COCC[Si](C)(C)C)c13)C(=O)N(Cc1ccccc1)C2=O` [N-[(2-benzyl-4-methyl-1,3-dioxo-5-{[2-(trimethylsilyl)ethoxy]methyl}-1H,2H,3H,5H-pyrrolo[3,4-b]carbazol-10-yl)methyl]-2-(dimethylamino)acetamide], over 10 µM.
